Tests used:
Test in all cases: Weeding effect in post-emergence stage
Type in all cases: in vivo
Conditions in all cases: 250 g/ha; 2 leaf stage; 15 days after application; fresh weight control rate
[1] = test system: Abutilon theophrasti
In short: (§1)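 Activity graded 0 (<5%) to 5 (>85%) from fresh-weight control rate, averaged over three repeats, 15 days after a spray-tower application. Plants at 2-leaf stage (2 weeks post-sowing) received 15–500 g/ha of compound formulated in acetone, Tween 80 and methyl oleate synergist (1.5 L/ha).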

[2] = test system: Setaria viridis
In short: as §1

[3] = test system: Digitaria sanguinalis
In short: as §1

[4] = test system: Echinochloa crusgali
In short: as §1

[5] = test system: Amaranthus retroflexus
In short: as §1

With COCC[S@@+]([O-])c1c(C(F)(F)F)ccc(C(=O)Nc2nnc(C)o2)c1SC [Compound 565] the “weeding effect in post-emergence stage, activity level (growth control rate), Abutilon theophrasti” value (“weeding effect … Abutilon theophrasti” for short) [1] was 5 (Level 5: growth control rate is above 85%), the “weeding effect in post-emergence stage, activity level (growth control rate), Setaria viridis” value (from here on “weeding effect … Setaria viridis”) [2] was 5 (Level 5: growth control rate is above 85%) and the “weeding effect in post-emergence stage, activity level (growth control rate), Digitaria sanguinalis” value (“weeding effect … Digitaria sanguinalis” for short) [3] was 5 (Level 5: growth control rate is above 85%). The “weeding effect in post-emergence stage, activity level (growth control rate), Echinochloa crusgali” value (shortened to “weeding effect … Echinochloa crusgali”) [4] was 5 (Level 5: growth control rate is above 85%) and the “weeding effect in post-emergence stage, activity level (growth control rate), Amaranthus retroflexus” value (shortened to “weeding effect … Amaranthus retroflexus”) [5] was 5 (Level 5: growth control rate is above 85%).

With CCCSc1c(C(=O)Nc2nnc(C)o2)ccc(C(F)(F)F)c1[S@+]([O-])CCC [Compound 570] the “weeding effect … Abutilon theophrasti” value [1] was 5 (Level 5: growth control rate is above 85%), the “weeding effect … Setaria viridis” value [2] was 5 (Level 5: growth control rate is above 85%) and the “weeding effect … Digitaria sanguinalis” value [3] was 5 (Level 5: growth control rate is above 85%). The “weeding effect … Echinochloa crusgali” value [4] was 5 (Level 5: growth control rate is above 85%) and the “weeding effect … Amaranthus retroflexus” value [5] was 5 (Level 5: growth control rate is above 85%).

In the case of CC[S@@+]([O-])c1c(C(F)(F)F)ccc(C(=O)Nc2nnco2)c1F [Compound 574], the “weeding effect … Abutilon theophrasti” value [1] is reported as 5 (Level 5: growth control rate is above 85%), the “weeding effect … Setaria viridis” value [2] is reported as 5 (Level 5: growth control rate is above 85%) and the “weeding effect … Digitaria sanguinalis” value [3] is reported as 5 (Level 5: growth control rate is above 85%). For the same molecule, the “weeding effect … Echinochloa crusgali” value [4] was 5 (Level 5: growth control rate is above 85%) and the “weeding effect … Amaranthus retroflexus” value [5] was 5 (Level 5: growth control rate is above 85%).

In the case of CCCC[S@@+]([O-])c1c(C(F)(F)F)ccc(C(=O)Nc2nnco2)c1F [Compound 575], the “weeding effect … Abutilon theophrasti” value [1] is reported as 5 (Level 5: growth control rate is above 85%), the “weeding effect … Setaria viridis” value [2] is reported as 5 (Level 5: growth control rate is above 85%) and the “weeding effect … Digitaria sanguinalis” value [3] is reported as 5 (Level 5: growth control rate is above 85%). The “weeding effect … Echinochloa crusgali” value [4] was 5 (Level 5: growth control rate is above 85%) and the “weeding effect … Amaranthus retroflexus” value [5] was 5 (Level 5: growth control rate is above 85%).

In the case of CCC(C)[S@@+]([O-])c1c(C(F)(F)F)ccc(C(=O)Nc2nnco2)c1F (stereo partly drawn) [Compound 576], the “weeding effect … Abutilon theophrasti” value [1] is reported as 5 (Level 5: growth control rate is above 85%), the “weeding effect … Setaria viridis” value [2] is reported as 5 (Level 5: growth control rate is above 85%) and the “weeding effect … Digitaria sanguinalis” value [3] is reported as 5 (Level 5: growth control rate is above 85%). For the same molecule, the “weeding effect … Echinochloa crusgali” value [4] was 5 (Level 5: growth control rate is above 85%) and the “weeding effect … Amaranthus retroflexus” value [5] was 5 (Level 5: growth control rate is above 85%).

CC(C)C[S@@+]([O-])c1c(C(F)(F)F)ccc(C(=O)Nc2nnco2)c1F [Compound 577] was tested, and the “weeding effect … Abutilon theophrasti” value [1] was 5 (Level 5: growth control rate is above 85%), the “weeding effect … Setaria viridis” value [2] was 5 (Level 5: growth control rate is above 85%) and the “weeding effect … Digitaria sanguinalis” value [3] was 5 (Level 5: growth control rate is above 85%). The “weeding effect … Echinochloa crusgali” value [4] was 5 (Level 5: growth control rate is above 85%) and the “weeding effect … Amaranthus retroflexus” value [5] was 5 (Level 5: growth control rate is above 85%).
